Data reported in ChEMBL document CHEMBL6087460, “Generating a Peptide Library Using the Repeats of Amino Acid Scaffolds Created by Sliding the Framework of a 7-mer Human Chemerin Segment and Discovery of Potent Antibacterial and Antimycobacterial Peptides” (J Med Chem, 2025).
In brackets after ≈: the same amount, converted by molar mass. Activity calls are given as the source filed them. No cut-off for these calls is given here.

Legend:
[1] = tested on: Mycobacterium tuberculosis variant bovis; assay: Antitubercular activity against Mycobacterium bovis BCG incubated for 5 days by rezasurin dye based assay; assay type: functional; settings: 120 h, time 5 day
[2] = tested on: Mycobacterium tuberculosis variant bovis; assay: Antimycobacterial activity against Mycobacterium bovis BCG infected in human THP-1 cells derived macrophages assessed as reduction in intracellular bacterial survival at 10 ug/ml incubated for 24 hrs relative to control; assay type: functional; settings: dose 10 µg/ml
[3] = tested on: Mycobacterium tuberculosis variant bovis; assay: Antimycobacterial activity against Mycobacterium bovis BCG infected in human THP-1 cells derived macrophages assessed as reduction in intracellular bacterial survival at 20 ug/ml incubated for 24 hrs relative to control; assay type: functional; settings: dose 20 µg/ml
[4] = tested on: Mycobacterium tuberculosis variant bovis; assay: Antitubercular activity against Mycobacterium bovis BCG infected in BALB/c mouse assessed as decrease in bacterial count in lungs at 2.5 to 5 mg/kg, iv administered once a day for 2 weeks; assay type: functional, organism-based; settings: dose 2.5-5 mg/kg
[5] = tested on: Mycobacterium tuberculosis variant bovis; assay: Antitubercular activity against Mycobacterium bovis BCG infected in BALB/c mouse assessed as decrease in bacterial count in spleen at 2.5 to 5 mg/kg, iv administered once a day for 2 weeks; assay type: functional, organism-based; settings: dose 2.5-5 mg/kg
[6] = tested on: Mycobacterium tuberculosis variant bovis; assay: Antitubercular activity against Mycobacterium bovis BCG infected in BALB/c mouse assessed as bacterial survival in lungs at 5 mg/kg, iv administered once a day for 2 weeks measured on day 15 relative to control; assay type: functional; settings: 336 h
[7] = tested on: Mycobacterium tuberculosis variant bovis; assay: Antitubercular activity against Mycobacterium bovis BCG infected in BALB/c mouse assessed as bacterial survival in spleen at 5 mg/kg, iv administered once a day for 2 weeks measured on day 15 relative to control; assay type: functional; settings: 336 h

## CO[C@H]1/C=C/O[C@@]2(C)Oc3c(C)c(O)c4c(O)c(c(/C=N/N5CCN(C)CC5)c(O)c4c3C2=O)NC(=O)/C(C)=C\C=C\[C@H](C)[C@H](O)[C@@H](C)[C@@H](O)[C@@H](C)[C@H](OC(C)=O)[C@@H]1C [RIFAMPIN]
[1]
  MIC: 0.25 µM (≈ 0.206 µg/mL)

## H-GRLGRLGRLGRLGRL-OH
[1]
  MIC: 5 µM

## H-GRLVGRLVGRLVGRLV-OH
[1]
  MIC: 2.5 µM
[2]
  Activity: 35%
[3]
  Activity: 20%
[4]
  Activity: Active
[5]
  Activity: Active
[6]
  survival at 5 mg/kg: ~10%
[7]
  survival at 5 mg/kg: ~10%

## H-KVLGKVLGKVLGKVLG-OH
[1]
  MIC: > 10 µM

## H-KVLKVLKVLKVL-OH
[1]
  MIC: > 10 µM

## H-LGRLLGRLLGRL-OH
[1]
  MIC: 5 µM

## H-RLRLRLRLRL-OH
[1]
  MIC: 10 µM

## H-RLVRLVRLVRLV-OH
[1]
  MIC: 5 µM

## H-RLVRLVRLVRLVRLV-OH
[1]
  MIC: > 10 µM

## H-VLGRVLGRVLGRVLGR-OH
[1]
  MIC: 2.5 µM
[2]
  Activity: 25%
[3]
  Activity: 10%
[4]
  Activity: Active
[5]
  Activity: Active
[6]
  survival at 5 mg/kg: ~10%
[7]
  survival at 5 mg/kg: ~10%
